Measured values taken from US9790520B2, “Antimicrobial method for fermentation processes” (DeLaval Holding AB, priority 2010, dated 2017).

Key:
[1] = Residual PAA and HP in corn mash by Hach DPD total chlorine test; assay type: physicochemical
Method: At the point of injection, the mash temperature was 140° F. and the mash flow rate was 110 gpm. The pumps used to pump both the HP and PAA solution were Prominent diaphragm pumps fitted with Teflon liquid ends. The dose of the PAA solution was 15 ppm (as PAA) and the dose of the HP was 40 ppm (as peroxide). However, the PAA solution and HP were fed for only 15 hours of the 23 hour fermentor fill time making the overall dose 9.8 ppm of PAA solution and 26 ppm of HP.
Samples were taken every hour at the mash cooler exit and fermentation tank. The samples were tested using a Hach DPD total chlorine test. Three (3) ml of sample was added to a test tube, then one DPD powder pillow was added to the sample. […] Peracetic acid (PAA) concentration was estimated based on the hue of pink color after 30 seconds.

yeast = assay: Full scale ethanol plant trial: alcohol production, yeast counts/viability, glycerol; assay type: cell-based, Saccaromyces cerevisiae
Method: A number of full scale trials were conducted in order to evaluate the efficacy of introducing peracetic acid and hydrogen peroxide into a fermentation system was evaluated and compared to the use of conventional antibiotics. The ethanol plant tested is a 20 MGPY plant having a modified Delta T design. The plant process flow is as follows: • Corn mash cooler stage one→Corn mash cooler stage 2→fermenter←→fermenter cooler→distillation The corn mash enters the stage one cooler at 180° F. and is cooled to 140° F. It then enters the stage 2 cooler and is cooled to 90° F. Flow through the cooler is 110 gpm. From the stage 2 cooler the mash is sent to the fermenter. Once in the fermenter, the corn mash is re-circulated through a plate and frame mash cooler. When the fermenter has been filled for 30 minutes, yeast is added to the recirculating corn mash. The fermenter takes about 23 hours to fill. Once filled, fermentation begins to accelerate releasing heat which is dissipated in the fermenter cooler. The fermenter mash is sent to distillation about 56 hours after the fermenter is filled. System parameters are as follows:
During fermentation, carbohydrates, ethanol, and organic acids are monitored in order to insure that the fermentation process is occurring normally and to insure that undesirable bacteria are kept under control. […]

OO [HP, hydrogen peroxide]
HP in fermenter corn mash ([1]; after 3 hours): not detectable

CC(=O)OO [PAA, peracetic acid]
PAA in fermenter corn mash ([1]; after two hours): not detectable
PAA in fermenter corn mash ([1]; up to two hours into filling): positive

Virginiamycin [antibiotics]
glycerol levels (indicative of stress on the yeast) (yeast): tended to increase
